The results in this text go back to US6440954B1, “Inhibition of vascular smooth muscle cell proliferation” (President and Fellows of Harvard College, priority 1997, dated 2002).

Assay [1] has as its system RASMCs. As to the kind of experiment: [3H]thymidine incorporation in RASMCs. The assay is classed as cell-based, rat. The procedure:
(§1) RASMCs were harvested from the thoracic aortas of adult male Sprague-Dawley rats (200-250 g) by enzymatic dissociation as described (Tsai et al., Proc. Natl. Acad. Sci. USA 91, 6369-6373 (1994)). The cells were grown in DMEM supplemented with 10% FCS, penicillin (100 U/ml), streptomycin (100 μg/ml), glutamine ([…]), and 25 mM Hepes (pH 7.4) in a humidified incubator (37° C., 5% CO2). HASMCs (Clonetics, San Diego) were grown in M199 medium (GIBCO BRL, Grand Island, N.Y.) supplemented with 20% FCS, penicillin (100 U/ml), streptomycin (100 μg/ml), and 25 mM Hepes (pH 7.4). Cells from passages 5-9 were used. RASMCs and HASMCs were cultured in 24-well plates containing an appropriate growth medium (DMEM plus 10% FCS for RASMCs, and M199 plus 20% FCS for HASMCs). After the cells had grown to 70-80% confluence, they were rendered quiescent by incubation for 72 h in DMEM (for RASMCs) or M199 (for HASMCs) containing 0.4% charcoal/dextran-treated FCS (FIGS. 2a and 2d) or 0.4% calf serum (CS) (FIGS. 2b and 2c). Phenol red-free DMEM was used in the experiments with estradiol (FIG. 2a). […] After incubation, the cells were washed with Dulbecco's PBS, fixed in cold 10% TCA for at least 2 h, and then washed with 95% ethanol. Incorporated [^3H]thymidine was extracted in 0.2 N NaOH and measured in a liquid scintillation counter.

Another assay has as its system HASMCs. The experiment in a line: [3H]thymidine incorporation in HASMCs. Type of assay: cell-based, human. As to conditions: quiescent HASMCs, 24 h incubation, FIG. 2d. The procedure: as §1
On the technique in general: Dividing cells build labelled thymidine or BrdU into new DNA.

The subject of assay [2] is RASMCs. The experiment in a line: Cell counting (RASMC proliferation). The assay is classed as cell-based, rat. As to conditions: FIG. 3b. The procedure:
RASMCs (2×10^4) were seeded onto 6-well plates and grown in DMEM supplemented with 10% FCS. […] Medium and progesterone were changed daily. Cells were counted in a Coulter apparatus at various times after their removal from the plates with trypsin-EDTA.

Assay [3] relates to cyclin A, E, B and D1 mRNAs in RASMCs. As to the kind of experiment: Northern analysis of cyclin mRNAs in RASMCs. The assay is classed as cell-based, rat. Particulars: 24 h after treatment, FIG. 4. The method, then: Total RNA from RASMCs was prepared from cultured RASMCs by guanidinium isothiocyanate extraction and centrifugation through cesium chloride. […] RNA samples (20 μg/lane) were electrophoresed on 1.3% formaldehyde-agarose gel, and then transferred onto nitrocellulose filters. The filters were hybridized to ^32P-labeled human cyclin probes as described (Lee et al., J. Biol. Chem. 266, 16188-16192 (1991); Lee et al., J. Biol Chem. 269, 12032-12039 (1994)). To normalize RNA content of each lane, the filters were washed at 80° C. in 50% formamide solution to remove the cyclin probes, and then hybridized with oligonucleotide probes for 28S RNA. Hybridized filters were washed in 30 mM NaCl, 3 mM sodium citrate, and 0.1% sodium dodecyl sulfate at 55° C. Radioactive signals were visualized on Kodak XAR film or PhosphorImager screens (Molecular Dynamics, Inc. Sunnyvale, Calif.).

SMILES strings stand for the structures.

`CC(=O)[C@H]1CC[C@H]2[C@@H]3CCC4=CC(=O)CC[C@]4(C)[C@H]3CC[C@]12C` [progesterone]: in the assay with RASMCs [1] (RASMCs, progesterone 500 nM, FIG. 2c), the “effect of serum (FCS) concentration on progesterone-induced inhibition of [3H]thymidine incorporation” value is “counteracted by serum in a dose-dependent manner”. Moreover, in the assay with RASMCs [1] (quiescent RASMCs, 24 h incubation, FIG. 2a/2b), the “effect on [3H]thymidine incorporation in RASMCs” value is “inhibited”. In addition, the “effect on [3H]thymidine incorporation in HASMCs” value in the assay with HASMCs is on record as “dose-dependent inhibition”. Further, the “reduction in RASMC cell growth, dose dependence” value in the assay on RASMCs [2] is given as “dose-dependent”. In assay [3], the “cyclin A mRNA level” value is “downregulated”, the “cyclin B mRNA level” value is on record as “did not change”, the “cyclin D1 mRNA level” value is reported as “did not change” and the “cyclin E mRNA level” value is given as “downregulated”.
